Experimental data as given in patent publication US11278555B2, “Combinational therapies for treatment of cancer comprising a bacteriochlorophyll derivative” (Yeda Research and Development Co. Ltd., priority 2016, dated 2022).

Test system: Foxp3+ Treg, CD8+ T cells, G-MDSC/neutrophils
Type: in vivo
Conditions: CTX treated vs only VTP
Experimental: • (i) Bacteriochlorophyll Derivatives—The Bchl derivatives and RGD-conjugates thereof were provided by Steba Biotech (Rehovot, Israel). […] Concentration was verified by spectrophotometric measurement. STL-7012 was provided as dipotassium salt. Working solution was prepared by dissolving STL-7012 K^+ salt in 5% mannitol solution (1 mg/ml). […] WST11 was supplied as a powder and kept in the dark at −20° C. Stock was prepared by dissolving WST11 in DDW containing 5% glucose and 0.67% mannitol, aliquoted and lyophilized. Working solution was reconstituted with DDW and the concentration of solution was confirmed spectrophotometrically. Alternatively, Clinical WST11 (batch: P00611, and 10-130611) was supplied as lyophilized formulation. Material was dissolved in 5% dextrose, aliquoted and stored at −20° C. […] Aliquots were thawed, diluted with saline to a desired concentration and used on the same day at a dose of 75 mg/kg. Cyclophosphamide (CTX, Endoxan®, Baxter Oncology Gmbh, Germany) was purchased from a local pharmacy. A stock solution of 20 mg/ml was prepared by dissolving in 0.9% NaCl, aliquoted and stored at −20° C. Aliquots were thawed, diluted with saline if needed to a desired concentration and used on the same day prepared at indicated doses. • (iii) Murine cell lines—Mammary luciferase (luc)-labeled 4T1 cell line (4T1-Luc) was a kind gift from Dr. Zvi Granot (Faculty of Medicine, The Hebrew University of Jerusalem, Israel); melanoma B16-F10 cell line was obtained from the American Type Culture Collection (ATCC, Manassas, Va.); bladder MB49 cell line was a kind gift from James Allison (MSKCC, New York, USA), and luc-labeled MB49-cell line was established using the murine stem cell virus (MSCV)-puromycin-luc-GFP construct (kindly provided by Dr. Emily Cheng, Human Oncology and Pathogenesis Program, MSKCC). 4T1 and MB49 cells were maintained in DMEM medium and B16-F10 cells in RPMI medium supplemented with 1 mmol/L sodium pyruvate, 10% fetal calf serum (FCS), 250 μg/ml hygromycin, 0.06 mg/ml penicillin and 0.1 mg/ml streptomycin. The cells were grown as monolayer at 37° C. in a humidified atmosphere (5% CO2, 95% air). • (iv) Murine tumor models—Female, Balb/c mice (6-8 week old) were grafted either subcutaneously (s.c.) into the right hind leg or orthotopically with 1×10^6 4T1 cells suspended in 50 or 1000 PBS. […] Whole body imaging of luciferase-transfected tumors and metastases were recorded five minutes following 75 mg Kg^−1 intraperitoneal (i.p.) injection of D-luciferin with respective filter sets. • (vi) PDT treatment protocol: 4T1-Luc cells were grafted in the mammary pad of Balb/c mice. […] Ablation of primary tumors was assessed every 7 days by imaging the tumor's luciferase-mediated bioluminescence signal, using IVIS.

CCC1c2cc3[n-]c(c(CC(=O)OC)c4nc(cc5[n-]c(cc(n2)C1C)c(C(C)=O)c5C)C(C)C4CCC(=O)[O-])c(C(=O)NCCS(=O)(=O)[O-])c3C.[K+].[K+].[Pd+2] (stereo not shown) [WST11, Palladium 3^1-oxo-15-methoxycarbonylmethyl-rhodobacteriochlorin 13^1-(2-sulfoethyl) amide dipotassium salt]
total cell numbers in draining lymph nodes and spleens after VTP: decrease in cell counts
